# Measured values as given in ChEMBL document CHEMBL5233258, “Recent developments of gallic acid derivatives and their hybrids in medicinal chemistry: A review” (Eur J Med Chem, 2020).
# pIC50: −log10 of the molar value.
# Key:
# [1] = tested on: Plasmodium falciparum; test: Antimalarial activity against Plasmodium falciparum; format: functional, organism-based
# [2] = tested on: Bacillus subtilis; test: Antibacterial activity against Bacillus subtilis ATCC 6633 by Mueller-Hinton broth method; format: functional
# [3] = tested on: Bacillus subtilis; test: Bactericidal activity against Bacillus subtilis ATCC 6633 by Mueller-Hinton broth method; format: functional
# [4] = Inhibition of recombinant HIV-1 integrase using V1/V2 as substrate assessed as 3'-end processing of the substrate incubated for 1 hrs; design: species or system Human immunodeficiency virus 1
# [5] = tested on: MCF7; test: Anticancer activity against human MCF7 cells assessed as inhibition of cell growth incubated for 24 hrs by MTT assay; format: functional, cell-based; settings: MCF7, 24 h
# [6] = tested on: Escherichia coli; test: Antibacterial activity against Escherichia coli assessed as zone of inhibition incubated for 24 hrs by agar diffusion method; format: functional; also: test concentration or dose not given here
# [7] = tested on: Pseudomonas aeruginosa; test: Antibacterial activity against Pseudomonas aeruginosa assessed as zone of inhibition incubated for 24 hrs by agar diffusion method; format: functional; also: test concentration or dose not given here
# [8] = Inhibition of recombinant HIV-1 integrase using 32-P labeled dBY-1 as substrate assessed as disintegration of substrate incubated for 1 hrs; design: species or system Human immunodeficiency virus 1
# [9] = tested on: MCF7; test: Cytotoxicity against human MCF7 cells assessed as reduction in cell viability incubated for 72 hrs by MTT assay; format: functional, cell-based; settings: MCF7, 72 h
# [10] = tested on: HCT-116; test: Cytotoxicity against human HCT-116 cells assessed as reduction in cell viability incubated for 72 hrs by MTT assay; format: functional, cell-based; settings: HCT-116, 72 h
# [11] = Antioxidant activity assessed as DPPH radical scavenging activity measured after 30 mins by spectrophotometric analysis; format: functional
# [12] = Antioxidant activity assessed as DPPH radical scavenging activity measured after 30 mins; format: functional
# [13] = Antioxidant activity assessed as DPPH radical scavenging activity; format: functional
# [14] = Antioxidant activity assessed as ABTS radical scavenging activity; format: functional
# [15] = tested on: Corynebacterium ammoniagenes; test: Antibacterial activity against Brevibacterium ammoniagenes ATCC 6872 assessed as inhibition of bacterial growth incubated for 48 hrs by broth macrodilution method; format: functional
# [16] = tested on: Staphylococcus aureus; test: Bactericidal activity against Staphylococcus aureus ATCC 12598 assessed as inhibition of bacterial growth incubated for 48 hrs by broth macrodilution method; format: functional
# [17] = tested on: Bacillus subtilis; test: Antibacterial activity against Bacillus subtilis ATCC 9372 assessed as inhibition of bacterial growth incubated for 48 hrs by broth macrodilution method; format: functional
# [18] = tested on: Bacillus subtilis; test: Bactericidal activity against Bacillus subtilis ATCC 9372 assessed as inhibition of bacterial growth incubated for 48 hrs by broth macrodilution method; format: functional
# [19] = tested on: Staphylococcus aureus; test: Antibacterial activity against Staphylococcus aureus ATCC 12598 assessed as inhibition of bacterial growth incubated for 48 hrs by broth macrodilution method; format: functional
# [20] = tested on: Corynebacterium ammoniagenes; test: Bactericidal activity against Brevibacterium ammoniagenes ATCC 6872 assessed as inhibition of bacterial growth incubated for 48 hrs by broth macrodilution method; format: functional
# [21] = tested on: Micrococcus luteus; test: Antibacterial activity against Micrococcus luteus ATCC 4698 assessed as inhibition of bacterial growth incubated for 48 hrs by broth macrodilution method; format: functional
# [22] = tested on: Micrococcus luteus; test: Bactericidal activity against Micrococcus luteus ATCC 4698 assessed as inhibition of bacterial growth incubated for 48 hrs by broth macrodilution method; format: functional
# [23] = species: Rattus norvegicus; test: Inhibition of tert-butylhydroperoxide induced lipid peroxidation in rat liver microsomes; format: functional, Microsome
# [24] = tested on: HCT-116; test: Cytotoxicity against human HCT-116 cells by MTT assay; format: functional, cell-based
# [25] = tested on: HepG2; test: Cytotoxicity against human HepG2 cells by MTT assay; format: functional, cell-based
# [26] = tested on: Mycobacterium tuberculosis; test: Antitubercular activity against Mycobacterium tuberculosis H37 Rv ATCC 27294 incubated for 7 days by Alamar blue assay; format: functional; settings: H37 Rv ATCC 27294, 168 h, time 7 day
# [27] = tested on: Human alphaherpesvirus 2; test: Antiviral activity against Herpes simplex viruses type 2 MS infected in Monkey BGM cells; format: functional, organism-based; settings: Human alphaherpesvirus 2, MS
# [28] = Antioxidant activity in DOPC loaded liposomes by DPPH scavenging assay; format: physicochemical
# [29] = Antioxidant activity in ethanol solution by DPPH scavenging assay; format: functional
# [30] = tested on: HCT-116; test: Anticancer activity against human HCT-116 cells assessed as inhibition of cell growth incubated for 24 hrs by MTT assay; format: functional, cell-based; settings: HCT-116, 24 h
# [31] = tested on: HeLa; test: Anticancer activity against human HeLa cells assessed as inhibition of cell growth incubated for 24 hrs by MTT assay; format: functional, cell-based
compound,measurement,setting,value
CCCCCCOC(=O)c1cc(O)c(O)c(O)c1 [HEXYL GALLATE],pIC50,[1],3.96
CCCCCCCCCC[N+](C)(C)CCO,MIC,[2],1200 µM
same,MBC,[3],1200 µM
O=C(O[C@@H]1C[C@@H](O)[C@@H](O)[C@H](OC(=O)c2cc(O)c(O)c(O)c2)C1)c1cc(O)c(O)c(O)c1,pIC50,[4],6.48
COc1ccc(/C=C\c2cc(OC)c(OC)c(OC)c2)cc1O [COMBRETASTATIN A4],pIC50,[5],8.00
COc1cc(C(=O)NN=Cc2nc(-c3ccccc3)c[nH]2)cc(OC)c1OC,inhibition zone (IZ),[6],17 mm
same,inhibition zone (IZ),[7],17 mm
O=C(/C=C/c1ccc(O)c(O)c1)O[C@@H]1C[C@](O)(C(=O)O)C[C@@H](OC(=O)/C=C/c2ccc(O)c(O)c2)[C@H]1O,pIC50,[8],5.26
COc1cc(/C=C/C(=O)CC(=O)/C=C/c2ccc(O)c(OC)c2)ccc1O [CURCUMIN],pIC50,[9],4.86
same,pIC50,[10],4.46
CC1(C)S[C@@H]2[C@H](NC(=O)[C@H](N)c3ccccc3)C(=O)N2[C@H]1C(=O)O [AMPICILLIN],inhibition zone (IZ),[6],15 mm
same,inhibition zone (IZ),[7],15 mm
Cc1nnc(C(=O)NC(C)(C)c2nc(C(=O)NCc3ccc(F)cc3)c(O)c(=O)n2C)o1 [RALTEGRAVIR],pIC50,[8],4.45
COC1=CC(=O)C[C@@H](C)[C@]12Oc1c(Cl)c(OC)cc(OC)c1C2=O [GRISEOFULVIN],inhibition zone (IZ),[6],22 mm
COc1cc2c(cc1Cc1cccc(Cl)c1F)c(=O)c(C(=O)O)cn2[C@H](CO)C(C)C [ELVITEGRAVIR],pIC50,[8],< 4.00
CCCCCCCCCCCC[N+](C)(C)CCOCCO,MIC,[2],2400 µM
same,MBC,[3],2400 µM
same,pIC50,[11],2.32
C/C(=N/NC(=O)c1cc(O)c(O)c(O)c1)c1cc(Br)ccc1O,IC50,[12],1.14 µg/mL
C/C(=N/NC(=O)c1cc(O)c(O)c(O)c1)c1ccccn1,IC50,[12],1.14 µg/mL
Oc1cc(-c2nnc(CC(O)(Cc3nnc(-c4cc(O)c(O)c(O)c4)o3)c3nnco3)o2)cc(O)c1O,pIC50,[13],4.80
same,pIC50,[14],3.90
COc1cc(/C=C\c2cc3c(cc2OC(C)=O)CC[C@@H]2[C@@H]3CC[C@]3(C)[C@@H](OC(C)=O)CC[C@@H]23)cc(OC)c1OC,pIC50,[5],5.12
O=C(O[C@@H]1C[C@H](O)C[C@@H](O)[C@H]1O)c1cc(O)c(O)c(O)c1,pIC50,[4],6.15
COc1cccc(OC)c1C(=O)N[C@@H]1C(=O)N2[C@@H]1SC(C)(C)[C@@H]2C(=O)O [METHICILLIN],MIC,[15],25 µg/mL
same,MBC,[16],> 6.25 µg/mL
same,MIC,[17],1.56 µg/mL
same,MBC,[18],6.25 µg/mL
same,MIC,[19],1.56 µg/mL
same,MBC,[20],25 µg/mL
same,MIC,[21],6.25 µg/mL
same,MBC,[22],6.25 µg/mL
COc1cc(C(=O)N/N=C/c2cc3ccccc3[nH]2)cc(OC)c1OC,inhibition zone (IZ),[6],17 mm
same,inhibition zone (IZ),[7],17 mm
O=c1c(O[C@@H]2O[C@H](CO)[C@@H](O)[C@H](O)[C@H]2O)c(-c2ccc(O)c(O)c2)oc2cc(O)cc(O)c12 [ISOQUERCETIN],pIC50,[23],3.01
COc1cc(C(=O)N/N=C/c2ccc(-c3ccccn3)cc2)cc(OC)c1OC,inhibition zone (IZ),[6],17 mm
same,inhibition zone (IZ),[7],17 mm
O=C(N/N=C/c1c[nH]c2ccc(Cl)cc12)c1cc(O)c(O)c(O)c1,pIC50,[9],5.17
same,pIC50,[10],4.72
same,pIC50,[11],3.72
COc1ccc(C2=NN(C(=O)c3cc(O)c(O)c(O)c3)C(c3ccc(C#N)cc3)C2)cc1OC (stereo unspecified),IC50,[24],31.5 µg/mL
same,IC50,[25],15.2 µg/mL
O=C(NN1C(=O)CSC1c1ccccc1Cl)c1cc(O)c(O)c(O)c1 (stereo unspecified),MIC,[26],0.79 µg/mL
COC(=O)c1cc(O)c(O)c(O)c1 [GALLIC ACID METHYL ESTER],pIC50,[27],6.65
same,pIC50,[28],5.08
same,pIC50,[1],4.52
same,pIC50,[29],5.14
O=C(N/N=C/c1c[nH]c2ccc(Br)cc12)c1cc(O)c(O)c(O)c1,pIC50,[9],5.17
same,pIC50,[10],4.88
same,pIC50,[11],3.76
COc1ccc(O)c(/C(C)=N\NC(=O)c2cc(O)c(O)c(O)c2)c1,IC50,[12],1.14 µg/mL
CSc1nnc(C(=O)c2cc(O)c(O)c(O)c2)o1,pIC50,[13],4.84
same,pIC50,[14],4.61
COc1cc(C(=O)N/N=C/c2ccnc3ccccc23)cc(OC)c1OC,inhibition zone (IZ),[6],17 mm
same,inhibition zone (IZ),[7],17 mm
CC(=O)O[C@H]1C(=O)[C@@]2(C)[C@H]([C@H](OC(=O)c3ccccc3)[C@]3(O)C[C@H](OC(=O)[C@H](O)[C@@H](NC(=O)c4ccccc4)c4ccccc4)C(C)=C1C3(C)C)[C@]1(OC(C)=O)CO[C@@H]1C[C@@H]2O [PACLITAXEL],IC50,[24],0.915 µg/mL
same,IC50,[25],0.66 µg/mL
same,pIC50,[5],8.60
CCCCCCCCCC[N+]1(C)CCCCC1,MIC,[2],1000 µM
same,MBC,[3],1000 µM
COc1cc(C(=O)N/N=C/c2c(CO)cnc(C)c2O)cc(OC)c1OC,inhibition zone (IZ),[6],17 mm
same,inhibition zone (IZ),[7],17 mm
O=C(O)c1cc(OCCNC(=O)c2cc(OCCNC(=O)c3cc(OCNC(=O)c4cc(O)c(O)c(O)c4)cc(OCNC(=O)c4cc(O)c(O)c(O)c4)c3)cc(OCCNC(=O)c3cc(OCNC(=O)c4cc(O)c(O)c(O)c4)cc(OCNC(=O)c4cc(O)c(O)c(O)c4)c3)c2)cc(OCCNC(=O)c2ccc(OCCNC(=O)c3cc(OCNC(=O)c4cc(O)c(O)c(O)c4)cc(OCNC(=O)c4cc(O)c(O)c(O)c4)c3)c(OCCNC(=O)c3cc(OCNC(=O)c4cc(O)c(O)c(O)c4)cc(OCNC(=O)c4cc(O)c(O)c(O)c4)c3)c2)c1,ED50,[13],4.7 µM
N#Cc1c(NC(=O)c2cc(O)c(O)c(O)c2)sc2c1CCCCC2,IC50,[30],3.2 µg/mL
Cc1c(C)c2c(c(C)c1O)CCC(C)(C(=O)O)O2 (stereo unspecified) [TROLOX],pIC50,[13],4.51
CC/C(=C(\c1ccccc1)c1ccc(OCCN(C)C)cc1)c1ccccc1 [TAMOXIFEN],pIC50,[5],5.05
O=C(OC[C@]1(O)C[C@@H](O)[C@@H](O)[C@H](OC(=O)c2cc(O)c(O)c(O)c2)C1)c1cc(O)c(O)c(O)c1,pIC50,[4],5.55
Oc1cc(-c2nnc(Cc3nnc(-c4cc(O)c(O)c(O)c4)o3)o2)cc(O)c1O,pIC50,[13],4.83
same,pIC50,[14],4.61
CCCCCCCCCCCC[N+](C)(C)CC(=O)O,MIC,[2],1100 µM
same,MBC,[3],1100 µM
same,pIC50,[11],2.33
NNC(=O)c1ccncc1 [ISONIAZID],MIC,[26],0.56 µg/mL
O=C1O[C@H]([C@@H](O)CO)C(O)=C1O [ASCORBIC ACID],pIC50,[13],4.74
same,IC50,[12],2.26 µg/mL
same,pIC50,[14],4.52
same,pIC50,[11],3.01
COc1cc([C@@H]2c3cc4c(cc3[C@H](O)[C@H]3COC(=O)[C@H]23)OCO4)cc(OC)c1OC [PODOFILOX],pIC50,[5],4.19
N#Cc1c(NC(=O)c2cc(O)c(O)c(O)c2)sc2c1CCC2,IC50,[31],59.4 µg/mL
C/C(=N/NC(=O)c1cc(O)c(O)c(O)c1)c1cc(Cl)ccc1O,IC50,[12],1.14 µg/mL
COc1ccc(C2CC(c3ccc(OC)c(OC)c3)=NN2C(=O)c2cc(O)c(O)c(O)c2)cc1 (stereo unspecified),IC50,[24],18.6 µg/mL
same,IC50,[25],8.4 µg/mL
O=C(O)c1cc(O)c(O)c(O)c1 [GALLIC ACID],IC50,[31],26.3 µg/mL
same,IC50,[30],41.8 µg/mL
Cc1c(C)c2c(c(C)c1O)CC[C@@](C)(CCC[C@H](C)CCC[C@H](C)CCCC(C)C)O2 [ALPHA-TOCOPHEROL],pIC50,[11],3.04
O=C(OC[C@H]1O[C@@H](Oc2c(-c3ccc(O)c(O)c3)oc3cc(O)cc(O)c3c2=O)[C@H](O)[C@@H](O)[C@@H]1O)c1cc(O)c(O)c(O)c1,pIC50,[23],5.18
